# Patent US20080039431A1, “Method of improving plant growth by reducing viral infections” (priority 2006, published 2008)
# Tests used:
# [1] = system: tomato spotted wilt virus (TSWV); experiment: Non-replicated GLP peanut residue trial, Molino, Fla. (Example 5); format: in vivo; conditions: for Percent row feet infected with TSWV: Georgia Green, rated August 23, 160 row ft plot
# Method: Cultivation—A non-replicated GLP peanut residue trial was conducted in Molino, Fla., using similar methods as in Examples 3 and 4. The cultivar used was Georgia Green. Prothioconazole treated seed were prepared on May 12. Plots were 160 row ft. in length. Treatments— • Untreated—no in-furrow treatment, chlorothalonil maintenance only for foliar diseases. • Seed treatment, in-furrow, and foliar—prothioconazole seed treatment@10 g active ingredient/100 kg seed plus prothioconazole applied in-furrow@200 g active ingredient/Ha followed by a program of three chlorothalonil applications and four applications of prothioconazole@100 g active ingredient/Ha. • Foliar only—A program of three chlorothalonil applications and four applications of prothioconazole@200 g active ingredient/Ha. TSWV rating—For TSWV incidence determination, on August 23 the number of row feet per plot with TSWV symptoms (chlorosis and stunting) was determined for the three treatments. Statistics cannot be run on single replication trials.
# [2] = system: tomato spotted wilt virus (TSWV); experiment: Tobacco drench / broadcast spray trial (Example 8); format: in vivo, tobacco (Nicotiana tabacum); conditions: prothioconazole 0.0084 g ai/plant, imidacloprid 0.01 g/plant (drench), acibenzolar-S-methyl 2.47 g ai/Ha broadcast spray
# Text: Cultivation—A trial on tobacco (Nicotiana tabacum) was initiated in Molino, Fla., to see if drenches of prothioconazole alone and in combination with the insecticide imidacloprid could control TSWV in tobacco. Plants of cultivar C-371 Gold were transplanted on April 28 into 9.1 meter plots with three replications. All eight treatments were applied after transplanting on May 1. Foliar treatments were applied as a broadcast spray, while drenches were applied as in Example 6. Acibenzolar-S-methyl is a plant defense activator used to control TSWV in tobacco.
# Treatments— • Untreated • Imidacloprid@0.01 g imidacloprid/plant • Imidacloprid@0.015 g Imidacloprid/plant • Prothioconazole@0.0084 g active ingredient/plant • Prothioconazole@0.0084 g active ingredient/plant+Imidacloprid@0.01 g imidacloprid/plant • Prothioconazole@0.0084 g active ingredient/plant+Imidacloprid@0.015 g […] label. • Acibenzolar-S-methyl@2.47 g active ingredient/Ha as a broadcast spray as per label.
# TSWV rating—For TSWV incidence determination the percentage of plants with TSWV symptoms (chlorosis and stunting) was determined for the eight treatments as in Example 6.
smiles,measurement,setting,value
"OC(Cc1ccccc1Cl)(Cn1nc[nH]c1=S)C1(Cl)CC1 (stereo not drawn) [Prothioconazole, prothioconazole]",Percent row feet infected with TSWV,[1]; foliar only: three chlorothalonil and four prothioconazole 200 g ai/Ha applications,16.25%
same,Percent row feet infected with TSWV,[1]; seed treatment 10 g ai/100 kg seed + in-furrow 200 g ai/Ha + three chlorothalonil and four prothioconazole 100 g ai/Ha applications,10.6%
same,Number of row feet infected with TSWV compared with foliar only program or chlorothalonil maintenance only,"[1]; seed treatment, in-furrow, and foliar prothioconazole applications (treatment 2)",numerically lower
same,Percent incidence TSWV in tobacco,[2]; 14 days after treatment,32.2%
same,Percent incidence TSWV in tobacco,[2]; 21 days after treatment,35.0%
same,Percent incidence TSWV in tobacco,[2]; 38 days after treatment,56.7%
